The text below walks through data of ChEMBL document CHEMBL1155741, “Ellagitannins and hexahydroxydiphenoyl esters as inhibitors of vertebrate squalene epoxidase” (J Nat Prod, 2001).

In one assay the target is T1, Squalene monooxygenase (Rattus norvegicus, UniProt P52020). In words: Inhibition of rat squalene epoxidase.
T1 sequence (P52020 whole entry): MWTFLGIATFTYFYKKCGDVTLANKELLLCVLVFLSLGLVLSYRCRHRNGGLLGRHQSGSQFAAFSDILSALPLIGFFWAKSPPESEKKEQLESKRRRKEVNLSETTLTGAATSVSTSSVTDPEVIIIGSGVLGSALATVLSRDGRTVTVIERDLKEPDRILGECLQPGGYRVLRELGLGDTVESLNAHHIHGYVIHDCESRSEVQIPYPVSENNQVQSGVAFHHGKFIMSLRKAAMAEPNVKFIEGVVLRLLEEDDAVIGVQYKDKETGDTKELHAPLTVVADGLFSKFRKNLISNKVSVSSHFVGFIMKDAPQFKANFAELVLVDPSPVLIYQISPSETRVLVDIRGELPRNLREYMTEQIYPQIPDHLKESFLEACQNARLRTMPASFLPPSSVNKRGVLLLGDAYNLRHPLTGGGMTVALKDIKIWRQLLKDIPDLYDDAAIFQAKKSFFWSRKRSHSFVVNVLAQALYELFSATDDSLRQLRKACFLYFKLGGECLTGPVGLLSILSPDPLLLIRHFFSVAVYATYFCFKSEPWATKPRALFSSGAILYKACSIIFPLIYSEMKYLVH
Turning to `O=C(O[C@@H]1[C@@H](c2c(O)cc(O)c3c2O[C@H](c2ccc(O)c(O)c2)[C@H](OC(=O)c2cc(O)c(O)c(O)c2)C3)c2c(O)cc(O)cc2O[C@@H]1c1ccc(O)c(O)c1)c1cc(O)c(O)c(O)c1`, the IC50 – broadly, the point on the concentration scale where inhibition reaches its midpoint – is 0.54 µM.

The compound `O=C(OC[C@H]1O[C@@H](OC(=O)c2cc(O)c(O)c(O)c2)[C@H](OC(=O)c2cc(O)c(O)c(O)c2)[C@@H](O)[C@@H]1O)c1cc(O)c(O)c(O)c1` gave an IC50 of 0.63 µM.

`O=C(O[C@@H]1Cc2c(O)cc(O)cc2O[C@@H]1c1cc(O)c(O)c(O)c1-c1c([C@H]2Oc3cc(O)cc(O)c3C[C@H]2OC(=O)c2cc(O)c(O)c(O)c2)cc(O)c(O)c1O)c1cc(O)c(O)c(O)c1` [THEASINENSIN A] showed an IC50 of 0.13 µM.

In the case of `CC(C)=CCC/C(C)=C/CC/C(C)=C/CC/C=C(\C)CC/C=C(\C)CCC=C(F)F` [TRISNORSQUALENE DIFLUOROMETHYLIDENE], the IC50 stood at 5.4 µM.

The target of another assay is Squalene epoxidase (Sus scrofa, UniProt A7L861). In words: Inhibition of pig squalene epoxidase.
Chain of Squalene epoxidase (A7L861 whole entry): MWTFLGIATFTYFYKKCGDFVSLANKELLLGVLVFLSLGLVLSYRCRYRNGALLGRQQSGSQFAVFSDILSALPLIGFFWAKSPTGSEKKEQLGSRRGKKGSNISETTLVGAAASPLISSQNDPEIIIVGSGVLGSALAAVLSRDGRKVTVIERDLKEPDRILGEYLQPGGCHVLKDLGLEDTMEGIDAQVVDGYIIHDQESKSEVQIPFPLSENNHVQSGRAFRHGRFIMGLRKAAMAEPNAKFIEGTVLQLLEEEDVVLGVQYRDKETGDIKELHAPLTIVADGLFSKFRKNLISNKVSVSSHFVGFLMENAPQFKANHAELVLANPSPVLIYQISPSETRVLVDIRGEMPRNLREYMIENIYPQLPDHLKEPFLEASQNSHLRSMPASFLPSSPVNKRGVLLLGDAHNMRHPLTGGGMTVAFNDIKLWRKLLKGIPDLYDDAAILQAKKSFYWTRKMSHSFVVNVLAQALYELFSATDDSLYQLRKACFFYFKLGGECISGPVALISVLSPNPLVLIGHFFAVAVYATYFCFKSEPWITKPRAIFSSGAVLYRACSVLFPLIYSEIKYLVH
In turn, `CC(C)=CCC/C(C)=C/CC/C(C)=C/CC/C=C(\C)CC/C=C(\C)CCCO` [TRISNORSQUALENE ALCOHOL] displayed an IC50 of 4 µM.

`CC(C)=CCC/C(C)=C/CC/C(C)=C/CC/C=C(\C)CC/C=C(\C)CCCNC1CC1` [TRISNORSQUALENE CYCLOPROPYLAMINE] showed a concentration for half-maximal inhibition (IC50) of 2 µM.

The target of the next assay is T1, Squalene monooxygenase. In words: Inhibition of C-terminal hexahistidine-tagged rat recombinant squalene epoxidase without N-terminal putative membrane domain expressed in Escherichia coli.
With `O=C(O[C@@H]1O[C@@H]2COC(=O)c3cc(O)c(O)c(O)c3-c3c(O)c(O)c(O)c(Oc4cc(C(=O)O[C@@H]5O[C@@H]6COC(=O)c7cc(O)c(O)c(O)c7-c7c(cc(O)c(O)c7O)C(=O)O[C@H]6[C@@H]6OC(=O)c7cc(O)c(O)c(O)c7-c7cc(O)c(O)c(O)c7C(=O)O[C@@H]56)cc(O)c4O)c3C(=O)O[C@H]2[C@@H]2OC(=O)c3cc(O)c(O)c(O)c3-c3c(cc(O)c(O)c3O)C(=O)O[C@@H]12)c1cc(O)c(O)c(O)c1`, the half-maximal inhibitory concentration (IC50) worked out at 12 µM.

With `COC(=O)c1cc(O)c(O)c(O)c1-c1c(C(=O)OC)cc(O)c(O)c1O`, the concentration for half-maximal inhibition (IC50) turned out to be 16.4 µM.

Turning to `CCCCCCCCCCCCCCCCCCOC(=O)c1cc(O)c(O)c(O)c1-c1c(C(=O)OCCCCCCCCCCCCCCCCCC)cc(O)c(O)c1O`, the IC50 turned out to be 47 µM.

As for `CCCCCCCCCCCCCCCCOC(=O)c1cc(O)c(O)c(O)c1-c1c(C(=O)OCCCCCCCCCCCCCCCC)cc(O)c(O)c1O`, the IC50 is 2.5 µM.

With `CCCCCCCCCCCCCCOC(=O)c1cc(O)c(O)c(O)c1-c1c(C(=O)OCCCCCCCCCCCCCC)cc(O)c(O)c1O`, the IC50 came to 1.5 µM.

Take `O=C(O[C@@H]1O[C@@H]2COC(=O)c3cc(O)c(O)c(O)c3-c3c(cc(O)c(O)c3O)C(=O)O[C@H]2[C@@H]2OC(=O)c3cc(O)c(O)c(O)c3-c3c(cc(O)c(O)c3O)C(=O)O[C@@H]12)c1cc(O)c(O)c(O)c1`: the IC50 was 7 µM.

For the compound `CCCCCCCCCCCCOC(=O)c1cc(O)c(O)c(O)c1-c1c(C(=O)OCCCCCCCCCCCC)cc(O)c(O)c1O`, the IC50 turned out to be 1.3 µM.

Regarding `CCCCCCCCCCOC(=O)c1cc(O)c(O)c(O)c1-c1c(C(=O)OCCCCCCCCCC)cc(O)c(O)c1O`, the IC50 is 1.1 µM.

For `O=C1O[C@H]2[C@H](O)[C@@H](CO)OC(O)[C@@H]2OC(=O)c2cc(O)c(O)c(O)c2-c2c1cc(O)c(O)c2O` (some centres undefined), the IC50 came to 32 µM.

`CCCCOC(=O)c1cc(O)c(O)c(O)c1-c1c(C(=O)OCCCC)cc(O)c(O)c1O`: the IC50 turned out to be 7.9 µM.

For `CCCCCCOC(=O)c1cc(O)c(O)c(O)c1-c1c(C(=O)OCCCCCC)cc(O)c(O)c1O`, the IC50 came to 0.93 µM.

For the compound `CCCCCCCCOC(=O)c1cc(O)c(O)c(O)c1-c1c(C(=O)OCCCCCCCC)cc(O)c(O)c1O`, the IC50 amounted to 0.83 µM.

As for `CCOC(=O)c1cc(O)c(O)c(O)c1-c1c(C(=O)OCC)cc(O)c(O)c1O`, the concentration for half-maximal inhibition (IC50) worked out at 13.3 µM.

As to `O=C1OC[C@H]2OC(=O)c3cc(O)c(O)c(O)c3-c3c(O)c(O)c(O)c4c3C(=O)O[C@H]([C@H]3OC(=O)c5c-4c(O)c(O)c(O)c5[C@H]3O)[C@@H]2OC(=O)c2cc(O)c(O)c(O)c2-c2c1cc(O)c(O)c2O` [CASTALAGIN], the IC50 amounted to 30 µM.

Turning to `O=C(O[C@@H]1COC(=O)c2cc(O)c(O)c(O)c2-c2c(cc(O)c(O)c2O)C(=O)O[C@H]1[C@@H]1OC(=O)c2cc(O)c(O)c(O)c2-c2c(O)c(O)c(O)c3c2C(=O)O[C@H]1[C@@H]3O)c1cc(O)c(O)c(O)c1` [CASUARININ], the IC50 worked out at 34 µM.

For the compound `O=C(O)C[C@@H]1C(=O)O[C@H]2[C@@H]3OC(=O)c4cc(O)c(O)c(O)c4-c4c(cc(O)c(O)c4O)C(=O)OC[C@H]2O[C@@H](OC(=O)c2cc(O)c(O)c(O)c2)[C@@H]3OC(=O)c2cc(O)c(O)c3c2[C@H]1[C@H](O)C(=O)O3` [CHEBULAGIC ACID], the IC50 came to 3.2 µM.

For `O=C(O)C[C@H]1C(=O)O[C@H]2[C@H](OC(=O)c3cc(O)c(O)c(O)c3)[C@@H](OC(=O)c3cc(O)c(O)c4c3[C@H]1[C@H](O)C(=O)O4)[C@H](OC(=O)c1cc(O)c(O)c(O)c1)O[C@@H]2COC(=O)c1cc(O)c(O)c(O)c1` [CHEBULINIC ACID], the IC50 is 12 µM.

As for `O=C(O[C@@H]1O[C@@H]2COC(=O)c3cc(O)c(O)c(O)c3-c3c(cc(O)c(O)c3O)C(=O)O[C@H]([C@H]1O)[C@@H]2O)c1cc(O)c(O)c(O)c1` [CORILAGIN], the IC50 was found to be 4 µM.

Take `O=c1oc2c(O)c(O)cc3c(=O)oc4c(O)c(O)cc1c4c23` [ELLAGIC ACID]: the IC50 came out at 2 µM.

For `CCOC(=O)c1cc(O)c(O)c(O)c1` [ETHYLGALLATE], the concentration for half-maximal inhibition (IC50) was 4.2 µM.

For the compound `O=C(O[C@@H]1O[C@@H]2COC(=O)c3cc(O)c(O)c(O)c3-c3c(cc(O)c(O)c3O)C(=O)O[C@H]2[C@H](OC(=O)c2cc(O)c(O)c(O)c2)[C@H]1OC(=O)c1cc(O)c(O)c(O)c1)c1cc(O)c(O)c(O)c1` [EUGENIIN], the IC50 was 1.6 µM.

Regarding `O=C1O[C@H]2[C@H](O)[C@@H](OC(=O)c3cc(O)c(O)c4c3[C@@H]3C1=CC(=O)C(O)(O)C3(O)O4)[C@H](OC(=O)c1cc(O)c(O)c(O)c1)O[C@@H]2CO` (some centres undefined) [FUROSIN], the IC50 came to 10 µM.

In the case of `O=C(O)c1cc(O)c(O)c(O)c1` [GALLIC ACID], the 50% inhibitory concentration (IC50) is 73 µM.

Consider `O=C1O[C@H]2[C@@H]3OC(=O)c4cc(O)c(O)c(O)c4-c4c(cc(O)c(O)c4O)C(=O)OC[C@H]2O[C@@H](OC(=O)c2cc(O)c(O)c(O)c2)[C@@H]3OC(=O)c2cc(O)c(O)c3c2[C@@H]2C1=CC(=O)[C@](O)(O3)C2(O)O` [GERANIIN], for which the 50% inhibitory concentration (IC50) stood at 4.1 µM.

`CCCCCCCCCCCCCCCCOC(=O)c1cc(O)c(O)c(O)c1` [HEXADECYL GALLATE]: the IC50 amounted to 0.59 µM.

Regarding `O=C(O[C@@H]1O[C@@H]2COC(=O)c3cc(O)c(O)c(O)c3-c3c(cc(Oc4c(C(=O)O)cc(O)c(O)c4O)c(O)c3O)C(=O)O[C@H]([C@H]1O)[C@@H]2O)c1cc(O)c(O)c(O)c1` [MALLOTINIC ACID], the IC50 is 8 µM.

As for `O=C1O[C@H]2[C@@H]3OC(=O)c4cc(Oc5c(C(=O)O)cc(O)c(O)c5O)c(O)c(O)c4-c4c(cc(O)c(O)c4O)C(=O)OC[C@H]2O[C@@H](OC(=O)c2cc(O)c(O)c(O)c2)[C@@H]3OC(=O)c2cc(O)c(O)c3c2[C@@H]2C1=CC(=O)[C@](O)(O3)C2(O)O` [MALLOTUSINIC ACID], the half-inhibitory concentration (IC50) turned out to be 8 µM.

On to `CCCCCCCCOC(=O)c1cc(O)c(O)c(O)c1` [OCTYL_GALLATE], for which the IC50 was 0.83 µM.

As for `O=C1OC[C@H]2OC(O)[C@@H]3OC(=O)c4cc(O)c(O)c(O)c4-c4c(cc(O)c(O)c4O)C(=O)O[C@H]3[C@@H]2OC(=O)c2cc(O)c(O)c(O)c2-c2c1cc(O)c(O)c2O` (some centres undefined) [PEDUNCULAGIN], the 50% inhibitory concentration (IC50) is 2 µM.

`O=C(OC[C@H]1O[C@@H](OC(=O)c2cc(O)c(O)c(O)c2)[C@H](OC(=O)c2cc(O)c(O)c(O)c2)[C@@H](OC(=O)c2cc(O)c(O)c(O)c2)[C@@H]1OC(=O)c1cc(O)c(O)c(O)c1)c1cc(O)c(O)c(O)c1` [PENTAGALLOYL GLUCOSE]: the concentration for half-maximal inhibition (IC50) is 0.47 µM.

As for `O=C(OC[C@H]1O[C@@H](OC(=O)c2cc(O)c(O)c(O)c2)[C@H](OC(=O)c2cc(O)c(O)c(O)c2)[C@@H](OC(=O)c2cc(O)c(O)c(O)c2)[C@@H]1OC(=O)c1cc(O)c(O)c(O)c1Oc1cc2c(c(O)c1O)-c1c(cc(O)c(O)c1O)C(=O)O[C@H]1[C@H](OC(=O)c3cc(O)c(O)c(O)c3)[C@@H](OC(=O)c3cc(O)c(O)c(O)c3)[C@H](OC(=O)c3cc(O)c(O)c(O)c3)O[C@@H]1COC2=O)c1cc(O)c(O)c(O)c1` [PHYLLYRAEOIDIN], the IC50 was 100 µM.

Turning to `O=C1O[C@@H]2[C@@H](OC(=O)c3cc(O)c(O)c(O)c3-c3c1cc(O)c(O)c3O)[C@H](O)O[C@@H]1COC(=O)c3cc(O)c(O)c(O)c3-c3c(O)c(O)c4oc(=O)c5c(c(O)c(O)c6oc(=O)c3c4c65)-c3c(cc(O)c(O)c3O)C(=O)O[C@@H]21` [PUNICALAGIN], the 50% inhibitory concentration (IC50) was 40 µM.

On to `O=C1OC[C@H]2O[C@@H](O)[C@H](O)[C@@H](O)[C@@H]2OC(=O)c2cc(O)c(O)c(O)c2-c2c(O)c(O)c3oc(=O)c4c(c(O)c(O)c5oc(=O)c2c3c54)-c2c1cc(O)c(O)c2O` [PUNICALIN], for which the IC50 was 20 µM.
